Measured values from patent publication US20200216416A1, “QUINOLINE COMPOUNDS AS INHIBITORS OF TAM AND MET KINASES” (Array BioPharma Inc., priority 2019, published 2020).
Like-named read-outs stand apart in the source and are kept apart here.

Legend:
[1] = biological target: T1, human MET kinase Y1230H (Homo sapiens, UniProt P08581, Y1230H); assay: c-Met Enzyme Assay, Y1230H mutant; assay type: binding; conditions: averaged IC50; Y1230H 5 nM; 60-minute incubation at 22° C.; read-out: Y1230 H IC50
T1 construct: GST-tagged recombinant human MET kinase domain; purchased Signal Chem
T1 sequence (P08581 1078-1345 Y1230H): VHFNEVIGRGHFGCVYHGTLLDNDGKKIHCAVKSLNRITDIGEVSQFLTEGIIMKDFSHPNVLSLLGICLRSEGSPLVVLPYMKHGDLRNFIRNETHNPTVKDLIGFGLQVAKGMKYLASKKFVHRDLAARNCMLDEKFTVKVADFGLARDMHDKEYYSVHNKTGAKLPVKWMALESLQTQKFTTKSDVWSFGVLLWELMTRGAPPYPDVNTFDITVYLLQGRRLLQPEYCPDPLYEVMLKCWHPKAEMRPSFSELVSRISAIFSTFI
Description: The affinity of compound binding to wild type and mutant human MET kinases was measured using Invitrogen's LanthaScreen™ Eu Kinase Binding technology. Briefly, GST-tagged recombinant human MET kinase domain from Signal Chem (see Table 8 below for concentration in assay) was incubated with 50 nM Alexa-Fluor® Tracer 236 (Invitrogen Cat No. PR9078A) and 2 nM Europium-anti-GST (Invitrogen Cat. No. A15116) along with test compound in a buffer consisting of 25 mM HEPES, pH 7.4, 10 mM MgCl2, 0.01% Triton X-100, 1mM DTT, and 2% DMSO. Compounds were typically prepared in a three-fold serial dilution in DMSO and added to the assay to give the appropriate final concentration. After a 60-minute incubation at 22° C., the reaction was measured using a PerkinElmer EnVision multimode plate reader via TR-FRET dual wavelength detection, and the percent of control (POC) calculated using a ratiometric emission factor. […] The POC values were fit to a 4 parameter logistic curve and the IC50 value is point where the curve crosses 50 POC.

[2] = biological target: T2, MDR1 (P-gp) (Homo sapiens, UniProt P08183); assay: MDR1 LLC-PK1 permeability assay; assay type: in vitro ADME; conditions: pig, MDR1 transfected LLC-PK1 cells; for Papp at 2 h, 1 μM: permeability coefficient (Papp)
T2 construct: expressed in transfected cells; host or cells: LLC-PK1
T2 sequence (P08183 whole entry): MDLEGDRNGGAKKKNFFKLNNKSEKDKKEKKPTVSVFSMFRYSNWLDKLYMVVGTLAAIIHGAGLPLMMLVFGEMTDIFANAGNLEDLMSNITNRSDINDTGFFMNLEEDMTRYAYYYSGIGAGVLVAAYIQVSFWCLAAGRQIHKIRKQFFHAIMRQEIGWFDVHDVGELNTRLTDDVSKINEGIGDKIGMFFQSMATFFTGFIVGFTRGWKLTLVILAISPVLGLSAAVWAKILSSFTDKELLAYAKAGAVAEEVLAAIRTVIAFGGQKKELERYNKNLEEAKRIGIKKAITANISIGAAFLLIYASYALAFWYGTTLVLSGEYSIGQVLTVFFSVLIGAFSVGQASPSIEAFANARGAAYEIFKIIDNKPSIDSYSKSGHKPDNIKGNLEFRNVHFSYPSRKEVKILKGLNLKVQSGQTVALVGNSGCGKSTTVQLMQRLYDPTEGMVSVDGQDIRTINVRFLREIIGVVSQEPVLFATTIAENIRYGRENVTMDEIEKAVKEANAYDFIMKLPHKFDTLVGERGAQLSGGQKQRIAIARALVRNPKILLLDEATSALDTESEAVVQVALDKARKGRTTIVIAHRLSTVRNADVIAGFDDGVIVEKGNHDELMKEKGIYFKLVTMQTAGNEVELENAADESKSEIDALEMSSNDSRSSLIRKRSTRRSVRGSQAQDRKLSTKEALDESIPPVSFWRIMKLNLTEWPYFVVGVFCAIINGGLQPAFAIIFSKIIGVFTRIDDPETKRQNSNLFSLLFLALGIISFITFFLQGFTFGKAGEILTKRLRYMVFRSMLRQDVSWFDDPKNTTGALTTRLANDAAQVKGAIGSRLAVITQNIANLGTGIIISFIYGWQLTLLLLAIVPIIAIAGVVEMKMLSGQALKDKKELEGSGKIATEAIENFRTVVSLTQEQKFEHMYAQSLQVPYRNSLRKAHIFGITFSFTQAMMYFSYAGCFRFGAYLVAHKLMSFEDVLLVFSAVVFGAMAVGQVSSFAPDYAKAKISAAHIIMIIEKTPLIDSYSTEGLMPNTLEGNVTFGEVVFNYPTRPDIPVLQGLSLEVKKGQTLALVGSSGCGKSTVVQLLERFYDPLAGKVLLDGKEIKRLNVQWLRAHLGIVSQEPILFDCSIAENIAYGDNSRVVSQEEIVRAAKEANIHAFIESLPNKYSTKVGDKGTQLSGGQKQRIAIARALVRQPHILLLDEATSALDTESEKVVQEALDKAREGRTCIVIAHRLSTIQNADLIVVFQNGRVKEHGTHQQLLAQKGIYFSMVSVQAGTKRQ
Description: MDR1 transfected LLC-PK1 cells were cultured and plated according to manufacturer's recommendations with the exception that the passage media contained only 2% fetal bovine serum to extend passage time out to seven days.
Both positive and negative controls were used to assess functionality of P-gp efflux in the assay. Stock solutions for assay controls and the test article were prepared in DMSO for final test concentrations of 10 and 1 μM, respectively. Final organic concentration in the assay was 1%. All dosing solutions contained 10 μM lucifer yellow to monitor LLC-PK1 cell monolayer integrity.
For the apical to basolateral determination (A to B), 75 μL of the test article in transport buffer were added to the apical side of the individual transwells and 250 μL of basolateral media, without compound or lucifer yellow, were added to each well. For the basolateral to apical determination (B to A), 250 μL of test article in transport buffer were added to each well and 75 μL transport buffer, without compound or lucifer yellow, were added to each transwell. All tests were performed in triplicate, and each compound was tested for both apical to basolateral and basolateral to apical transport. The plates were incubated for 2 hours on a Lab-Line Instruments Titer Orbital Shaker (VWR, West Chester, Pa.) at 50 rpm and 37° C. with 5% CO2. All culture plates were removed from the incubator and 50 μL of media were removed from the apical and basolateral portion of each well and added to 150 μL of 1 μM labetalol in 2:1 acetonitrile (acetonitrile): H2O, v/v.
The plates were read using a Molecular Devices (Sunnyvale, Calif.) Gemini Fluorometer to evaluate the lucifer yellow concentrations at excitation/emission wavelengths of 425/535 nm. These values were accepted when found to be below 2% for apical to basolateral and 5% basolateral to apical flux across the MDR1-transfected LLC-PK1-transfected cell monolayers. The plates were sealed and the contents of each well analyzed by LC-MS/MS. The compound concentrations were determined from the ratio of the peak areas of the compound to the internal standard (labetalol) in comparison to the dosing solution.
The LC-MS/MS system was comprised of an HTS-PAL autosampler (Leap Technologies, Carrboro, N.C.), an HP1200 HPLC (Agilent, Palo Alto, Calif.), and a MDS Sciex 4000 Q Trap system (Applied Biosystems, Foster City, Calif.). […] The total run time, including re-equilibration, for a single injection was 1.2 minutes. Mass spectrometric detection of the analytes was accomplished using the ion spray positive mode. Analyte responses were measured by multiple reaction monitoring (MRM) of transitions unique to each compound (the protonated precursor ion and selected product ions for each test article and m/z 329 to m/z 162 for labetalol, the internal standard).
The permeability coefficient (Papp) is calculated from the following equation: […]
where Cd, V, t and C0 are the detected concentration (μM), the volume on the dosing side (mL), the incubation time (s) and the initial dosing concentration (μM), respectively. The calculations for Papp were made for each replicate and then averaged. In this assay, a compound is defined has having high permeability if the permeability is greater than 8×10^−6 cm/sec, a compound is defined has having medium permeability if the permeability is from 2×10^−6 cm/sec to 8×10^−6 cm/sec, and a compound is defined has having low permeability if the permeability is less than 2×10^−6 cm/sec.
An efflux ratio was calculated from the mean apical to basolateral (A-B) Papp data and basolateral to apical (B-A) Papp data:
Efflux ratio=Papp(B−A)/Papp(A−B)

[3] = LLC-PK1, Papp(B−A)/Papp(A−B), test article 1 μM, 2 hours, 37° C., read-out: Efflux ratio
[4] = LLC-PK1, efflux ratio = Papp(B-A)/Papp(A-B), read-out: MDR1 Pe Ratio

| Compound | IC50 [1] | efflux ratio at 2 h, 1 μM [2, 3] | efflux ratio at 2 h, 1 μM [2, 4] | Papp at 2 h, 1 μM [2] |
| --- | --- | --- | --- | --- |
| CCOc1ccc2c(Oc3ccc(NC(=O)c4cn(C(C)C)cc(-c5ccc(F)cc5)c4=O)nc3)ccnc2c1 [Example 52, N-(5-((7-ethoxyquinolin-4-yl)oxy)pyridin-2-yl)-5-(4-fluorophenyl)-1-isopropyl-4-oxo-1,4-dihydropyridine-3-carboxamide] | 32.6 nM | 3.5 | 1.8 | 2 ×10⁻⁶ cm/s |
| COc1cc2nccc(Oc3ccc(NC(=O)c4cn(CC5CCOCC5)cc(-c5ccc(F)cc5)c4=O)nc3)c2cc1OC [Example 8, N-(5-((6,7-dimethoxyquinolin-4-yl)oxy)pyridin-2-yl)-5-(4-fluorophenyl)-4-oxo-1-((tetrahydro-2H-pyran-4-yl)methyl)-1,4-dihydropyridine-3-carboxamide] | 8.6 nM |  | 10 | 9 ×10⁻⁶ cm/s |
| COc1cc2nccc(Oc3ccc(NC(=O)c4cn(CCN(C)C)cc(-c5ccc(F)cc5F)c4=O)nc3)c2cc1OC [Example 44, 5-(2,4-difluorophenyl)-N-(5-((6,7-dimethoxyquinolin-4-yl)oxy)pyridin-2-yl)-1-(2-(dimethylamino)ethyl)-4-oxo-1,4-dihydropyridine-3-carboxamide] | 2.7 nM |  | 11 | 2 ×10⁻⁶ cm/s |
| COc1cc2nccc(Oc3ccc(NC(=O)c4cn(C5CCOCC5)cc(-c5ccc(F)cc5)c4=O)nc3)c2cc1OC [Example 12, N-(5((6,7-dimethoxyquinolin-4-yl)oxy)pyridin-2-yl)-5-(4-fluorophenyl)-4-oxo-1-(tetrahydro-2H-pyran-4-yl)-1,4-dihydropyridine-3-carboxamide] | 5.4 nM |  | 15 | 13 ×10⁻⁶ cm/s |
| COc1cc2nccc(Oc3ccc(NC(=O)c4cn(C)c(C(C)C)c(-c5ccc(F)cc5)c4=O)nc3)c2cc1OC [Example 45, N-(5-((6,7-dimethoxyquinolin-4-yl)oxy)pyridin-2-yl)-5-(4-fluorophenyl)-6-isopropyl-1-methyl-4-oxo-1,4-dihydropyridine-3-carboxamide] | 9.9 nM |  | 16 | 5 ×10⁻⁶ cm/s |
| COc1cc2nccc(Oc3ccc(NC(=O)c4cn(C)cc(-c5ccc(F)cc5)c4=O)nc3)c2cc1OC [Example 2] | 18.2 nM |  | 8.3 | 15 ×10⁻⁶ cm/s |
| COc1cc2nccc(Oc3ccc(NC(=O)c4cn(CCN(C)C)cc(-c5ccc(Cl)cc5)c4=O)nc3)c2cc1OC [Example 42] | 6.7 nM |  | 12 |  |
| COc1cc2nccc(Oc3ccc(NC(=O)c4cn(CCC(C)C)cc(-c5ccc(F)cc5)c4=O)nc3)c2cc1OC [Example 34, N-(5-((6,7-dimethoxyquinolin-4yl)oxy)pyridin-2-yl)-5-(4-fluorophenyl)-1-isopentyl-4-oxo-1,4-dihydropyridine-3-carboxamide] | 5.9 nM |  | 5.3 | < 1 ×10⁻⁶ cm/s |
| COc1cc2nccc(Oc3ccc(NC(=O)c4cn(C(C)C)cc(-c5ccc(F)cc5F)c4=O)nc3)c2cc1OC [Example 4] | 4.9 nM | 3.5 | 1.5 | 10 ×10⁻⁶ cm/s |
| COc1cc2c(Oc3ccc(NC(=O)c4cn(C(C)C)cc(-c5ccc(F)cc5)c4=O)nc3)ccnc2cc1F [Example 49, N-(5-((7-fluoro-6-methoxyquinolin-4yl)oxy)pyridin-2-yl)-5-(4-fluorophenyl)-1-isopropyl-4-oxo-1,4-dihydropyridine-3-carboxamide] | 112 nM | 3.5 | 0.99 | 4 ×10⁻⁶ cm/s |
| COc1cc2nccc(Oc3ccc(NC(=O)c4cn(C(C)C)cc(-c5ccc(F)cc5)c4=O)nc3)c2cc1OC [Example 1] | 2.9 nM | 3.5 | 3.2 | 10 ×10⁻⁶ cm/s |
| COc1cc2nccc(Oc3ccc(NC(=O)c4cn(CC(=O)N(C)C)cc(-c5ccc(F)c(F)c5)c4=O)nc3)c2cc1OC [Example 24, 5-(3,4-difluorophenyl)-N-(5-((6,7-dimethoxyquinolin-4-yl)oxy)pyridin-2-yl)-1-(2-(dimethylamino)-2-oxoethyl)-4-oxo-1,4-dihydropyridine-3-carboxamide] | 22.7 nM |  | 210 | 9.5 ×10⁻⁶ cm/s |
| CC(C)n1cc(C(=O)Nc2ccc(Oc3ccnc4cc(OC(F)(F)F)ccc34)cn2)c(=O)c(-c2ccc(F)cc2)c1 [Example 50, 5-(4-fluorophenyl)-1-isopropyl-4-oxo-N-(5-((7-(trifluoromethoxy)quinolin-4-yl)oxy)pyridin-2-yl)-1,4-dihydropyridine-3-carboxamide] | 397 nM |  | 4.7 | < 1 ×10⁻⁶ cm/s |
| CCc1c(-c2ccc(F)cc2)c(=O)c(C(=O)Nc2ccc(Oc3ccnc4cc(OC)c(OC)cc34)cn2)cn1C(C)C [Example 29, N-(5-((6,7-dimethoxyquinolin-4yl)oxy)pyridin-2-yl)-6-ethyl-5-(4-fluorophenyl)-1-isopropyl-4-oxo-1,4-dihydropyridine-3-carboxamide] | 4.2 nM |  | 3.6 | 10 ×10⁻⁶ cm/s |
| COc1cc2nccc(Oc3ccc(NC(=O)c4cn(CCN(C)C)cc(-c5ccc(F)cc5)c4=O)nc3)c2cc1OC [Example 46] | 3.4 nM |  | 13 | 2 ×10⁻⁶ cm/s |
| COc1cc2nccc(Oc3ccc(NC(=O)c4cn(CC(C)C)cc(-c5ccc(F)cc5)c4=O)nc3)c2cc1OC [Example 11, N-(5-((6,7-dimethoxyquinolin-4-yl)oxy)pyridin-2-yl)-5-(4-fluorophenyl)-1-isobutyl-4-oxo-1,4-dihydropyridine-3-carboxamide] | 9.3 nM |  | 31 |  |
| COc1cc2nccc(Oc3ccc(NC(=O)c4cn(C(C)C)c(C)c(-c5ccc(F)c(F)c5)c4=O)nc3)c2cc1OC [Example 28, 5-(3,4-difluorophenyl)-N-(5-((6,7-dimethoxyquinolin-4yl)oxy)pyridin-2-yl)-1-isopropyl-6-methyl-4-oxo-1,4-dihydropyridine-3-carboxamide] | 7.8 nM | 3.5 | 2.8 | 15 ×10⁻⁶ cm/s |
| COc1cc2nccc(Oc3ccc(NC(=O)c4cn(C(C)C)c(C(C)C)c(-c5ccc(F)cc5)c4=O)nc3)c2cc1OC [Example 38, N-(5-((6,7-dimethoxyquinolin-4yl)oxy)pyridin-2-yl)-5-(4-fluorophenyl)-1,6-diisopropyl-4-oxo-1,4-dihydropyridine-3-carboxamide] |  |  |  | 25 ×10⁻⁶ cm/s |
